Measured values: patent US8338465B2, “Cyclic carboxylic acid rhodanine derivatives for the treatment and prevention of tuberculosis” (priority 2006, dated 2012)
Like-named read-outs stand apart in the source and are kept apart here.

Target: T1, dihydrolipoamide acyltransferase (DlaT) (Mycobacterium tuberculosis, UniProt P9WIS7)
T1 sequence (P9WIS7 1-553): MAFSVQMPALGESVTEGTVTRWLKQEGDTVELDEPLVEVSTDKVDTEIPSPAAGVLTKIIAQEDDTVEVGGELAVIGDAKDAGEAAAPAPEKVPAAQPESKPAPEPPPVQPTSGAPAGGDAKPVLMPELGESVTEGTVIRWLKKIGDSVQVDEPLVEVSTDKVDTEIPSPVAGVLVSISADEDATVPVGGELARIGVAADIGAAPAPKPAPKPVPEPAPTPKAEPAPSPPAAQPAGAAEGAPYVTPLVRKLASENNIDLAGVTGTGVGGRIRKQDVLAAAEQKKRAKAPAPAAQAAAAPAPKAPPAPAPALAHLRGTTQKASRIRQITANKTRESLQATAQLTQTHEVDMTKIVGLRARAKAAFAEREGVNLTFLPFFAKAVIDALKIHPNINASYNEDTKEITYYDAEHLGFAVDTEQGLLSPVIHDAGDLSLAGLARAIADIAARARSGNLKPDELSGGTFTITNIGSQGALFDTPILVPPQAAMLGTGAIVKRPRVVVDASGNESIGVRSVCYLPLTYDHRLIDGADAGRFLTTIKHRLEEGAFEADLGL
Assay: DlaT inhibition (Dlat IC50); DTNB peroxidase assay with Lpd, DlaT and AhpD
Assay type: biochemical

[1] = Dlat IC50 category, Table 13, Compounds M1 to M4
[2] = Dlat IC50 category, Table 14, Compounds N1 to N3
[3] = Dlat IC50 category, Table 16, Compounds P1 to P2
[4] = Dlat IC50 category, Table 17, Compounds Q1 to Q9
[5] = Dlat IC50 category, Table 20, Prodrugs (Compounds T1 to T8)
[6] = Dlat IC50 category, Table 21, Prodrugs (Examples U1 to U10)

SMILES: O=C(O)C(Cc1ccccc1)N1C(=O)C(=Cc2ccc(-c3cc4ccccc4s3)o2)SC1=S (stereo not shown) [Compound J3]
- IC50 (Dlat IC50 category, Table 10, Compounds J1 to J3): < 10 µM

SMILES: O=C(O)c1cncc(N2C(=O)C(=Cc3ccc(-c4ccccc4Cl)o3)SC2=S)c1 [Compound M1]
- IC50 [1]: < 10 µM

SMILES: O=C(O)c1cncc(N2C(=O)C(=Cc3ccc(-c4cccc(C(F)(F)F)c4)o3)SC2=S)c1 [Compound M2]
- IC50 [1]: < 10 µM

SMILES: CC(C)(C)c1ccc(-c2ccc(C=C3SC(=S)N(c4cncc(C(=O)O)c4)C3=O)o2)cc1 [Compound M3]
- IC50 [1]: < 10 µM

SMILES: N#Cc1c(F)cccc1-c1ccc(C=C2SC(=S)N(c3cncc(C(=O)O)c3)C2=O)o1 [Compound M4]
- IC50 [1]: 11 to 40 µM

SMILES: O=C(O)c1cccc(N2C(=O)C(=Cc3ccc(Cc4ccccc4Cl)o3)SC2=S)c1 [Compound N1]
- IC50 [2]: < 10 µM

SMILES: COc1ccc(C(=O)O)cc1N1C(=O)C(=Cc2ccc(Cc3ccccc3Cl)o2)SC1=S [Compound N2]
- IC50 [2]: 11 to 40 µM

SMILES: O=C(O)c1cc(N2C(=O)C(=Cc3ccc(Cc4ccccc4Cl)o3)SC2=S)ccc1O [Compound N3]
- IC50 [2]: < 10 µM

SMILES: O=C(O)C(c1ccccc1)N1C(=O)C(=Cc2cccc(-c3ccc(Cl)s3)n2)SC1=S (stereo not shown) [Compound P1]
- IC50 [3]: < 10 µM

SMILES: O=C(O)CCN1C(=O)C(=Cc2cccc(-c3ccc(Cl)s3)n2)SC1=S [Compound P2]
- IC50 [3]: 11 to 40 µM

SMILES: O=C(O)c1cccc(N2C(=O)C(=Cc3ccc(-c4cncnc4)o3)SC2=S)c1 [Compound Q1]
- IC50 [4]: 11 to 40 µM

SMILES: O=C(O)c1ccc(N2C(=O)C(=Cc3ccc(-c4cncnc4)o3)SC2=S)cc1 [Compound Q2]
- IC50 [4]: 11 to 40 µM

SMILES: NS(=O)(=O)c1ccc(N2C(=O)C(=Cc3ccc(-c4cncnc4)o3)SC2=S)cc1 [Compound Q3]
- IC50 [4]: 11 to 40 µM

SMILES: O=C(O)c1cccc(N2C(=O)C(=Cc3ccc(-c4ccncc4)o3)SC2=S)c1 [Compound Q4]
- IC50 [4]: 11 to 40 µM

SMILES: O=C(O)c1cc(N2C(=O)C(=Cc3ccc(-c4ccsc4Cl)o3)SC2=S)ccc1O [Compound Q5]
- IC50 [4]: 11 to 40 µM

SMILES: O=C(O)c1cccc(N2C(=O)C(=Cc3ccc(-c4ccc5nonc5c4)o3)SC2=S)c1 [Compound Q9]
- IC50 [4]: 11 to 40 µM

SMILES: O=C(OCCCCO)c1cccc(N2C(=O)C(=Cc3ccc(-c4ccccc4Cl)o3)SC2=S)c1 [Compound T1, 3-{5-[1-[5-(2-Chloro-phenyl)-furan-2-yl]-methylidene]-4-oxo-2-thioxo-thiazolidin-3-yl}-benzoic acid 4-hydroxy-butyl ester]
- IC50 [5]: 41 to 80 µM

SMILES: O=C(OCCCO)c1cccc(N2C(=O)C(=Cc3ccc(-c4ccccc4Cl)o3)SC2=S)c1 [Compound T2, 3-{5-[1-[5-(2-Chloro-phenyl)-furan-2-yl]-methylidene]-4-oxo-2-thioxo-thiazolidin-3-yl}-benzoic acid 3-hydroxy-propyl ester]
- IC50 [5]: 41 to 80 µM

SMILES: O=C(OCCCCOP(=O)(O)O)c1cccc(N2C(=O)C(=Cc3ccc(-c4ccccc4Cl)o3)SC2=S)c1 [Compound T3, 3-{5-[1-[5-(2-Chloro-phenyl)-furan-2-yl]-methylidene]-4-oxo-2-thioxo-thiazolidin-3-yl}-benzoic acid 4-phosphonooxy-butyl ester]
- IC50 [5]: 41 to 80 µM

SMILES: O=C(OCC(CO)CO)c1cccc(N2C(=O)C(=Cc3ccc(-c4ccccc4Cl)o3)SC2=S)c1 [Compound T4, 3-{5-[1-[5-(2-Chloro-phenyl)-furan-2-yl]-methylidene]-4-oxo-2-thioxo-thiazolidin-3-yl}-benzoic acid 3-hydroxy-2-hydroxymethyl-propyl ester]
- IC50 [5]: 11 to 40 µM

SMILES: CC(CO)(CO)COC(=O)c1cccc(N2C(=O)C(=Cc3ccc(-c4ccccc4Cl)o3)SC2=S)c1 [Compound T5, 3-{5-[1-[5-(2-Chloro-phenyl)-furan-2-yl]-methylidene]-4-oxo-2-thioxo-thiazolidin-3-yl}-benzoic acid 3-hydroxy-2-hydroxymethyl-2-methyl propyl ester]
- IC50 (Table 20, Prodrugs (Compounds T1 to T8), read-out: Dlat IC50 category): 11 to 40 µM

SMILES: O=C(NC(CO)(CO)CO)c1cccc(N2C(=O)C(=Cc3ccc(-c4ccccc4Cl)o3)SC2=S)c1 [Compound T6, 3-{5-[1-[5-(2-Chloro-phenyl)-furan-2-yl]-methylidene]-4-oxo-2-thioxo-thiazolidin-3-yl}-N-(2-hydroxy-1,1-bis-hydroxymethyl-ethyl)-benzamide]
- IC50 [5]: 11 to 40 µM

SMILES: O=C(NC(CO)CO)c1cccc(N2C(=O)C(=Cc3ccc(-c4ccccc4Cl)o3)SC2=S)c1 [Compound T7, 3-{5-[1-[5-(2-Chloro-phenyl)-furan-2-yl]-methylidene]-4-oxo-2-thioxo-thiazolidin-3-yl}-N-(2-hydroxy-1-hydroxymethyl-ethyl)-benzamide]
- IC50 [5]: 11 to 40 µM

SMILES: O=C(OCCN(CCO)CCO)c1cccc(N2C(=O)C(=Cc3ccc(-c4ccccc4Cl)o3)SC2=S)c1 [Compound T8, 3-{5-[1-[5-(2-Chloro-phenyl)-furan-2-yl]-methylidene]-4-oxo-2-thioxo-thiazolidin-3-yl}-benzoic acid 2-[bis-(2-hydroxy-ethyl)-amino]-ethyl ester]
- IC50 [5]: 41 to 80 µM

SMILES: CNS(=O)(=O)c1ccc(-c2ccc(C=C3SC(=S)N(C4CCCC(C(=O)OCCCO)C4)C3=O)o2)cc1 (stereo not shown) [Compound U2, 3-{5-[1-[5-(4-Methylsulfamoyl-phenyl)-furan-2-yl]-methylidene]-4-oxo-2-thioxo-thiazolidin-3-yl}-cyclohexanecarboxylic acid 3-hydroxy-propyl ester]
- IC50 [6]: 11 to 40 µM

SMILES: CSc1ccc(-c2ccc(C=C3SC(=S)N(C4CCCC(C(=O)OCCO)C4)C3=O)o2)cc1 (stereo not shown) [Compound U3, 3-{5-[1-[5-(4-Methylsulfanyl-phenyl)-furan-2-yl]-methylidene]-4-oxo-2-thioxo-thiazolidin-3-yl}-cyclohexanecarboxylic acid 2-hydroxy-ethyl ester]
- IC50 [6]: 41 to 80 µM

SMILES: CSc1ccc(-c2ccc(C=C3SC(=S)N(C4CCCC(C(=O)OCCCCO)C4)C3=O)o2)cc1 (stereo not shown) [Compound U4, 3-{5-[1-[5-(4-Methylsulfanyl-phenyl)-furan-2-yl]-methylidene]-4-oxo-2-thioxo-thiazolidin-3-yl}-cyclohexanecarboxylic acid 4-hydroxy-butyl ester]
- IC50 [6]: 41 to 80 µM

SMILES: CSc1ccc(-c2ccc(C=C3SC(=S)N(C4CCCC(C(=O)OCC(CO)CO)C4)C3=O)o2)cc1 (stereo not shown) [Compound U5, 3-{5-[1-[5-(4-Methylsulfanyl-phenyl)-furan-2-yl]-methylidene]-4-oxo-2-thioxo-thiazolidin-3-yl}-cyclohexanecarboxylic acid 3-hydroxy-2-hydroxymethyl-propyl ester]
- IC50 [6]: 11 to 40 µM

SMILES: CSc1ccc(-c2ccc(C=C3SC(=S)N(C4CCCC(C(=O)OCC(C)(CO)CO)C4)C3=O)o2)cc1 (stereo not shown) [Compound U6, 3-{5-[1-[5-(4-Methylsulfanyl-phenyl)-furan-2-yl]-methylidene]-4-oxo-2-thioxo-thiazolidin-3-yl}-cyclohexanecarboxylic acid 3-hydroxy-2-hydroxymethyl-2-methyl-propyl ester]
- IC50 [6]: 41 to 80 µM

SMILES: CSc1ccc(-c2ccc(C=C3SC(=S)N(C4CCCC(C(=O)NC(CO)(CO)CO)C4)C3=O)o2)cc1 (stereo not shown) [Compound U7, 3-{5-[1-[5-(4-Methylsulfanyl-phenyl)-furan-2-yl]-methylidene]-4-oxo-2-thioxo-thiazolidin-3-yl}-cyclohexanecarboxylic acid (2-hydroxy-1,1-bis-hydroxymethyl-ethyl)-amide]
- IC50 [6]: 41 to 80 µM

SMILES: CSc1ccc(-c2ccc(C=C3SC(=S)N(C4CCCC(C(=O)NC(CO)CO)C4)C3=O)o2)cc1 (stereo not shown) [Compound U8, 3-{5-[1-[5-(4-Methylsulfanyl-phenyl)-furan-2-yl]-methylidene]-4-oxo-2-thioxo-thiazolidin-3-yl}-cyclohexanecarboxylic acid (2-hydroxy-1-hydroxymethyl-ethyl)-amide]
- IC50 [6]: 41 to 80 µM
